Assay results taken from ChEMBL document CHEMBL5505979, “Novel aminothiazoximone-corbelled ethoxycarbonylpyrimidones with antibiofilm activity to conquer Gram-negative bacteria through potential multitargeting effects” (Eur J Med Chem, 2024).
In brackets after ≈: the same amount, converted by molar mass. Activity calls are given as the source filed them. No cut-off for these calls is given here.

Assays:
[1] = tested on: Escherichia coli; assay: Anti-bacterial activity against Escherichia coli ATCC 25922 assessed as growth inhibition by measuring optical density measured at 2 times of MIC of norfloxacin by Checkerboard assay (reference value: 0.129); assay type: functional
[2] = tested on: Pseudomonas aeruginosa; assay: Anti-bacterial activity against Pseudomonas aeruginosa ATCC 9027 assessed as inhibition of bacterial growth; assay type: functional
[3] = tested on: Acinetobacter baumannii; assay: Anti-bacterial activity against Acinetobacter baumannii assessed as growth inhibition by measuring optical density measured at 1/4 time of MIC (reference value: 0.156); assay type: functional
[4] = tested on: Pseudomonas aeruginosa; assay: Anti-bacterial activity against Pseudomonas aeruginosa ST235 assessed as inhibition of bacterial growth; assay type: functional; details: Pseudomonas aeruginosa, ST235; read-out: MIC
[5] = tested on: Escherichia coli; assay: Anti-bacterial activity against Escherichia coli JM109 assessed as inhibition of bacterial growth; assay type: functional
[6] = tested on: Escherichia coli; assay: Anti-bacterial activity against Escherichia coli ATCC 25922 assessed as growth inhibition by measuring optical density measured at 1/4 times of MIC of norfloxacin by Checkerboard assay (reference value: 0.129); assay type: functional
[7] = tested on: Staphylococcus aureus; assay: Anti-bacterial activity against Staphylococcus aureus ATCC 1708 assessed as inhibition of bacterial growth; assay type: functional; details: Staphylococcus aureus, ATCC 1708; read-out: MIC
[8] = tested on: Escherichia coli; assay: Drug resistance, ratio of MIC for Escherichia coli ATCC 25922 after 20 passages exposure to MIC for Escherichia coli ATCC 25922 after first exposure; assay type: functional
[9] = tested on: Acinetobacter baumannii; assay: Drug resistance, ratio of MIC for Acinetobacter baumannii after 20 passages exposure to MIC for Acinetobacter baumannii after first exposure; assay type: functional
[10] = tested on: Acinetobacter baumannii; assay: Anti-bacterial activity against Acinetobacter baumannii assessed as growth inhibition by measuring optical density measured at 2 time of MIC (reference value: 0.156); assay type: functional
[11] = tested on: Klebsiella pneumoniae; assay: Anti-bacterial activity against Klebsiella pneumoniae KPN325 assessed as inhibition of bacterial growth; assay type: functional; details: Klebsiella pneumoniae, KPN325; read-out: MIC
[12] = tested on: Staphylococcus aureus; assay: Anti-bacterial activity against methicillin-resistant Staphylococcus aureus N315 assessed as inhibition of bacterial growth; assay type: functional; details: Staphylococcus aureus, N315; read-out: MIC
[13] = tested on: Staphylococcus aureus; assay: Anti-bacterial activity against Staphylococcus aureus ATCC 25923 assessed as inhibition of bacterial growth; assay type: functional; details: Staphylococcus aureus, ATCC 25923; read-out: MIC
[14] = tested on: Acinetobacter baumannii; assay: Anti-bacterial activity against Acinetobacter baumannii assessed as growth inhibition by measuring optical density measured at 1/8 time of MIC (reference value: 0.156); assay type: functional
[15] = tested on: Acinetobacter baumannii; assay: Anti-bacterial activity against Acinetobacter baumannii assessed as growth inhibition by measuring optical density measured at 1 time of MIC (reference value: 0.156); assay type: functional
[16] = tested on: Staphylococcus aureus; assay: Anti-bacterial activity against Staphylococcus aureus CMCC (B) 26001 assessed as inhibition of bacterial growth; assay type: functional
[17] = tested on: Staphylococcus aureus; assay: Anti-bacterial activity against Staphylococcus aureus ATCC 6538 assessed as inhibition of bacterial growth; assay type: functional
[18] = tested on: Enterococcus faecalis; assay: Anti-bacterial activity against Enterococcus faecalis V583 assessed as inhibition of bacterial growth; assay type: functional
[19] = tested on: Escherichia coli; assay: Anti-bacterial activity against Escherichia coli ATCC 25922 assessed as growth inhibition by measuring optical density measured at 1 times of MIC of norfloxacin by Checkerboard assay (reference value: 0.129); assay type: functional
[20] = tested on: Acinetobacter baumannii; assay: Anti-bacterial activity against Acinetobacter baumannii R674 assessed as inhibition of bacterial growth; assay type: functional
[21] = tested on: Pseudomonas aeruginosa; assay: Anti-bacterial activity against Pseudomonas aeruginosa ATCC 15442 assessed as inhibition of bacterial growth; assay type: functional; details: Pseudomonas aeruginosa, ATCC 15442; read-out: MIC
[22] = tested on: Acinetobacter baumannii; assay: Anti-bacterial activity against Acinetobacter baumannii assessed as inhibition of bacterial growth measured after 6-7 th passages at sub-MIC concentration by multiple resistance study; assay type: functional, organism-based
[23] = tested on: Acinetobacter baumannii; assay: Anti-bacterial activity against Acinetobacter baumannii assessed as growth inhibition by measuring optical density measured at 1/2 time of MIC (reference value: 0.156); assay type: functional
[24] = tested on: Staphylococcus aureus; assay: Anti-bacterial activity against Staphylococcus aureus ATCC 12600 assessed as inhibition of bacterial growth; assay type: functional; details: Staphylococcus aureus, ATCC 12600; read-out: MIC
[25] = tested on: Pseudomonas aeruginosa; assay: Anti-bacterial activity against Pseudomonas aeruginosa CMCC (B) 10104 assessed as inhibition of bacterial growth; assay type: functional; details: Pseudomonas aeruginosa, CMCC (B) 10104; read-out: MIC
[26] = tested on: Staphylococcus aureus; assay: Anti-bacterial activity against methicillin-resistant Staphylococcus aureus ATCC 43300 assessed as inhibition of bacterial growth; assay type: functional; details: Staphylococcus aureus, ATCC 43300; read-out: MIC
[27] = tested on: Staphylococcus aureus; assay: Anti-bacterial activity against Staphylococcus aureus CMCC (B) 26003 assessed as inhibition of bacterial growth; assay type: functional
[28] = tested on: Escherichia coli; assay: Anti-bacterial activity against Escherichia coli ATCC 25922 assessed as inhibition of bacterial growth measured after 6-7 th passages at sub-MIC concentration by multiple resistance study; assay type: functional, organism-based
[29] = tested on: Escherichia coli; assay: (§1) Anti-bacterial activity against Escherichia coli ATCC 25922 assessed as fractional inhibitory concentration measured upto 9 hrs in presence of ethyl(E)-6-((4-(2-(2-aminothiazol-4-yl)-2-(methoxyimino)acetyl)piperazin-1-yl)methyl)-4-(2-butyl-4-chloro-1H-imidazole-5-yl)-2-oxo-1,2,3,4-tetrahydropyrimidine-5-carboxylate; assay type: functional
[30] = tested on: Escherichia coli; assay: Anti-bacterial activity against Escherichia coli ATCC 25922 assessed as growth inhibition by measuring optical density measured at 1/8 times of MIC of norfloxacin by Checkerboard assay (reference value: 0.129); assay type: functional
[31] = tested on: Escherichia coli; assay: Anti-bacterial activity against Escherichia coli ATCC 25922 assessed as growth inhibition by measuring optical density measured at 1/2 times of MIC of norfloxacin by Checkerboard assay (reference value: 0.129); assay type: functional
[32] = tested on: Pseudomonas aeruginosa; assay: Anti-bacterial activity against Pseudomonas aeruginosa ATCC 27853 assessed as inhibition of bacterial growth; assay type: functional; details: Pseudomonas aeruginosa, ATCC 27853; read-out: MIC
[33] = tested on: Escherichia coli; assay: Anti-bacterial activity against Escherichia coli ATCC 25922 assessed as inhibition of bacterial growth; assay type: functional
[34] = tested on: Staphylococcus aureus; assay: Anti-bacterial activity against Staphylococcus aureus ATCC 29213 assessed as inhibition of bacterial growth; assay type: functional; details: Staphylococcus aureus, ATCC 29213; read-out: MIC
[35] = tested on: Acinetobacter baumannii; assay: as §1, with “Acinetobacter baumannii” for “Escherichia coli ATCC 25922”; assay type: functional
[36] = tested on: Candida tropicalis; assay: Anti-fungal activity against Candida tropicalis assessed as inhibition of fungal growth; assay type: functional; details: Candida tropicalis; read-out: MIC
[37] = tested on: Candida albicans; assay: Anti-fungal activity against Candida albicans 90023 assessed as inhibition of fungal growth; assay type: functional
[38] = tested on: Candida albicans; assay: Anti-fungal activity against Candida albicans assessed as inhibition of fungal growth; assay type: functional; details: Candida albicans; read-out: MIC
[39] = tested on: Candida parapsilosis; assay: Anti-fungal activity against Candida parapsilosis assessed as inhibition of fungal growth; assay type: functional; details: Lodderomyces parapsilosis; read-out: MIC

| SMILES | MIC [2] [µM] | MIC [4] [µM] | MIC [5] [µM] | MIC [7] [µM] | MIC [11] [µM] | MIC [12] [µM] | MIC [13] [µM] | MIC [16] [µM] | MIC [17] [µM] | MIC [18] [µM] | MIC [20] [µM] | MIC [21] [µM] | MIC [24] [µM] | MIC [25] [µM] | MIC [26] [µM] | MIC [27] [µM] | MIC [32] [µM] | MIC [33] [µM] | MIC [34] [µM] | MIC [36] [µM] | other results |
| --- | --- | --- | --- | --- | --- | --- | --- | --- | --- | --- | --- | --- | --- | --- | --- | --- | --- | --- | --- | --- | --- |
| CCn1cc(C(=O)O)c(=O)c2cc(F)c(N3CCNCC3)cc21 [NORFLOXACIN] | 6 (≈ 1.92 µg/mL) | 6 (≈ 1.92 µg/mL) | 25 (≈ 7.98 µg/mL) | 3 (≈ 0.958 µg/mL) | 3 (≈ 0.958 µg/mL) | 6 (≈ 1.92 µg/mL) | 6 (≈ 1.92 µg/mL) | 6 (≈ 1.92 µg/mL) | 6 (≈ 1.92 µg/mL) | 6 (≈ 1.92 µg/mL) | 13 (≈ 4.15 µg/mL) | 6 (≈ 1.92 µg/mL) | 6 (≈ 1.92 µg/mL) | 6 (≈ 1.92 µg/mL) | 3 (≈ 0.958 µg/mL) | 6 (≈ 1.92 µg/mL) | 25 (≈ 7.98 µg/mL) | 13 (≈ 4.15 µg/mL) | 6 (≈ 1.92 µg/mL) | – | OD [1]: 0.128; OD [3]: 0.142; OD [6]: 0.128; Ratio [8]: 16; Ratio [9]: 32; OD [10]: 0.136; OD [14]: 0.155; OD [15]: 0.138; OD [19]: 0.129; Activity [22]: inactive; OD [23]: 0.141; Activity [28]: inactive; FIC [29]: 0.25; OD [30]: 0.125; OD [31]: 0.128; FIC [35]: 0.25 |
| CCCCc1nc(Cl)c(C2NC(=O)NC(CN3CCN(CC(=O)c4ccc(F)cc4)CC3)=C2C(=O)OCC)[nH]1 (centres undefined) | 114 (≈ 64 µg/mL) | 57 (≈ 32 µg/mL) | 114 (≈ 64 µg/mL) | 114 (≈ 64 µg/mL) | 229 (≈ 128 µg/mL) | 229 (≈ 128 µg/mL) | 57 (≈ 32 µg/mL) | 57 (≈ 32 µg/mL) | 229 (≈ 128 µg/mL) | 57 (≈ 32 µg/mL) | 114 (≈ 64 µg/mL) | 114 (≈ 64 µg/mL) | 57 (≈ 32 µg/mL) | 114 (≈ 64 µg/mL) | 114 (≈ 64 µg/mL) | 114 (≈ 64 µg/mL) | 57 (≈ 32 µg/mL) | 114 (≈ 64 µg/mL) | 57 (≈ 32 µg/mL) | 457 (≈ 256 µg/mL) | MIC [37]: 29 µM (≈ 16.3 µg/mL); MIC [38]: 457 µM (≈ 256 µg/mL); MIC [39]: 457 µM (≈ 256 µg/mL) |
| CCOC(=O)C1=C(CN2CCN(C(=O)/C(=N/OC)c3csc(N)n3)CC2)NC(=O)NC1c1nccs1 (centres undefined) | 60 (≈ 32.1 µg/mL) | 30 (≈ 16 µg/mL) | 240 (≈ 128 µg/mL) | 240 (≈ 128 µg/mL) | 240 (≈ 128 µg/mL) | 240 (≈ 128 µg/mL) | 240 (≈ 128 µg/mL) | 60 (≈ 32.1 µg/mL) | 120 (≈ 64.2 µg/mL) | 240 (≈ 128 µg/mL) | 479 (≈ 256 µg/mL) | 120 (≈ 64.2 µg/mL) | 120 (≈ 64.2 µg/mL) | 240 (≈ 128 µg/mL) | 120 (≈ 64.2 µg/mL) | 240 (≈ 128 µg/mL) | 15 (≈ 8.02 µg/mL) | 60 (≈ 32.1 µg/mL) | 479 (≈ 256 µg/mL) | 60 (≈ 32.1 µg/mL) | MIC [37]: 60 µM (≈ 32.1 µg/mL); MIC [38]: 479 µM (≈ 256 µg/mL); MIC [39]: 479 µM (≈ 256 µg/mL) |
| CCOC(=O)C1=C(CN2CCN(C(=O)/C(=N/OC)c3csc(N)n3)CC2)NC(=O)NC1c1ccc(Cl)cc1Cl (centres undefined) | 108 (≈ 64.4 µg/mL) | 54 (≈ 32.2 µg/mL) | 108 (≈ 64.4 µg/mL) | 54 (≈ 32.2 µg/mL) | 108 (≈ 64.4 µg/mL) | 108 (≈ 64.4 µg/mL) | 54 (≈ 32.2 µg/mL) | 54 (≈ 32.2 µg/mL) | 54 (≈ 32.2 µg/mL) | 27 (≈ 16.1 µg/mL) | 27 (≈ 16.1 µg/mL) | 54 (≈ 32.2 µg/mL) | 54 (≈ 32.2 µg/mL) | 54 (≈ 32.2 µg/mL) | 27 (≈ 16.1 µg/mL) | 108 (≈ 64.4 µg/mL) | 54 (≈ 32.2 µg/mL) | 54 (≈ 32.2 µg/mL) | 108 (≈ 64.4 µg/mL) | 449 (≈ 268 µg/mL) | MIC [37]: 449 µM (≈ 268 µg/mL); MIC [38]: 449 µM (≈ 268 µg/mL); MIC [39]: 449 µM (≈ 268 µg/mL) |
